Data from ChEMBL document CHEMBL1201862, “PubChem BioAssay data set” (2004).
Calls of active or inactive are those of the source.

Key:
[1] = target: DNA dC->dU-editing enzyme APOBEC-3A (Homo sapiens, UniProt P31941); assay: Dose Response confirmation of small molecule APOBEC3A DNA Deaminase Inhibitors via a fluorescence-based single-stranded DNA deaminase assay. [Related pubchem assays (depositor defined):AID493011, AID493024]; assay type: functional
[2] = target: DNA dC->dU-editing enzyme APOBEC-3G (Homo sapiens, UniProt Q9HC16); assay type: functional;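 note: Dose-response counterscreen measuring inhibition of APOBEC3G DNA deaminase activity, run while confirming APOBEC3A inhibitors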
[3] = LGR2 antagonists, dose response, cell-based, HEK293, CRE-luciferase reporter, cherry pick, set 2 (AID 743343); assay type: functional;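 note: transfected cells were stimulated with diluted bursicon conditioned medium after compound addition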
[4] = MC4R antagonists, dose response, counter-screen for LGR2 antagonist project, cell-based, plate reader, cherry pick (AID 743444); assay type: functional;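 note: transfected HEK 293 cells stimulated with alpha-MSH peptide; potency of inhibitors of the alpha-MSH evoked signal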
[5] = HepG2 cell cytotoxicity, dose response, cytotoxicity control, plate reader, cherry-pick, antagonist series (AID 743416); assay type: functional, cell-based
[6] = target: T1, Nuclear receptor subfamily 0 group B member 1 (Homo sapiens, UniProt P51843); assay type: functional, cell-based;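 note: HEK293T cells transfected with SF-1 and DAX-1 plus StAR promoter luciferase reporter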
T1 sequence (P51843 whole entry): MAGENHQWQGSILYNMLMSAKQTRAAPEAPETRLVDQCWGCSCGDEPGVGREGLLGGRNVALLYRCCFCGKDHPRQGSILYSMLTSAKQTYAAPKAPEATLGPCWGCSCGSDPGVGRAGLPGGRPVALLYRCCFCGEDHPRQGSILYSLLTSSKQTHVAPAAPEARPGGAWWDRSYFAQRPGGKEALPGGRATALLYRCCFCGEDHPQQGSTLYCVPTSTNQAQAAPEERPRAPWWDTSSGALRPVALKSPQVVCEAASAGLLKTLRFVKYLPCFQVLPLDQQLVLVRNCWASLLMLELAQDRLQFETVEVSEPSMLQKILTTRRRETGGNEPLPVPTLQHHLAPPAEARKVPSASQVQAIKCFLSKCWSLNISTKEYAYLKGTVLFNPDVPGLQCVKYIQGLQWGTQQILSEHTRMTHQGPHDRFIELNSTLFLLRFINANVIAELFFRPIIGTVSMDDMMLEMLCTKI

cells [7] = assay type: functional, cell-based
[8] = microbe, parasite or virus in culture; assay type: functional; conditions: Mycobacterium tuberculosis
[9] = THP-1 cell cytotoxicity, dose response, cytotoxicity control for non-replicating M. tuberculosis project (AID 489025); assay type: functional
cells [10] = assay type: functional
[11] = AlphaScreen signal interference compounds, dose response, artefact control for ARNT-TACC3 interaction inhibitor project, biochemical, luminescence, cherry-pick (AID 651705); assay type: functional;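 note: AlphaScreen bead proximity signal that flags compounds interfering with the detection technology; potency reflects signal decrease which marks the compound as an assay artifact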
[12] = HepG2 cell cytotoxicity, dose response, cytotoxicity control for non-replicating M. tuberculosis project (AID 489018); assay type: functional; conditions: Mycobacterium tuberculosis
Nonstructural protein 1 = Nonstructural protein 1 (Influenza A virus, UniProt Q194T2); assay type: functional, Influenza A virus (A/California/07/2009(H1N1))
[13] = Vero E6 cell cytotoxicity, dose response, cytotoxicity control for non-replicating M. tuberculosis project, secondary assay (AID 492998); assay type: functional, VeroE6; conditions: Vero C1008
[14] = target: Female germline-specific tumor suppressor gld-1 (Caenorhabditis elegans, UniProt Q17339); assay: inhibitors of GLD-1 binding to TGE RNA, dose response, biochemical, fluorescence polarization, C. elegans (AID 2802);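 note: fluorescence polarization of labeled TGE RNA bound by purified gld-1 protein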
[15] = target: T2, Polyadenylate-binding protein 1 (Homo sapiens, UniProt P11940); assay: PABP1 MLLE–PAM2 interaction inhibitors, dose response, miRNA deadenylation inhibitor project, biochemical, fluorescence polarization, Cy5-PAM2 peptide, secondary (AID 602260); assay type: functional; conditions: read-out: IC50_Mean
Protein Rev = Protein Rev (Human immunodeficiency virus type 1 group M subtype B (isolate HXB2)(HIV-1), UniProt P04618); assay: inhibitors of Rev binding to RRE RNA, dose response, biochemical, fluorescence polarization, HIV-1 (AID 434976); design: species or system Human immunodeficiency virus 1
[16] = target: T3, RNA-binding protein pos-1 (Caenorhabditis elegans, UniProt G5EF15); assay: inhibitors of POS-1/mex-3 RNA binding, dose response, biochemical, fluorescence polarization (AID 1964);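 note: purified POS-1 fused to maltose binding protein made in E. coli; potency of compounds blocking POS-1 binding to fluorescent RNA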
T3 sequence (G5EF15 whole entry): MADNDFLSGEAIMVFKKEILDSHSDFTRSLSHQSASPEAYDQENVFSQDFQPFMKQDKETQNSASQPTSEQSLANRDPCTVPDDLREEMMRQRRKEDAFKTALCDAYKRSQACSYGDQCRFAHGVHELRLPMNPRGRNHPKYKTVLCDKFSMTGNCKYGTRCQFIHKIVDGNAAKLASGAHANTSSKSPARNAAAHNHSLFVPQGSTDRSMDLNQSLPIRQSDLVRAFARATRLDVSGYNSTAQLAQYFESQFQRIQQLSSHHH

[17] = target: T4, Zinc finger protein mex-5 (Caenorhabditis elegans, UniProt Q9XUB2); assay: MEX-5/TCR-2 RNA interaction inhibitors, dose response, biochemical, C. elegans, fluorescence polarization (AID 1960)
T4 sequence (Q9XUB2 whole entry): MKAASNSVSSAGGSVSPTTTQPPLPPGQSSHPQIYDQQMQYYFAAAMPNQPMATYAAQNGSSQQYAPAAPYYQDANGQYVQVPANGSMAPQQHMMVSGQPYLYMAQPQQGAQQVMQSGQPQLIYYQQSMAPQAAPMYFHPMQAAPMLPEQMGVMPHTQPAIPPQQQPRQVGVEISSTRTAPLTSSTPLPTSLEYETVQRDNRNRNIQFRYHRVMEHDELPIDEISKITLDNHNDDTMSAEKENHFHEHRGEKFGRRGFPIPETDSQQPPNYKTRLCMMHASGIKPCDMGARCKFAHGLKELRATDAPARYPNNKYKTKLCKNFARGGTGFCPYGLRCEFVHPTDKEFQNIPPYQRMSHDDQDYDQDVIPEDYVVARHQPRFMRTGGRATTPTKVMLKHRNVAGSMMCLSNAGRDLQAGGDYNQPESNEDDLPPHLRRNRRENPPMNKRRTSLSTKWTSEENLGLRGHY

[18] = target: T2, Polyadenylate-binding protein 1; assay: PABP1 MLLE–PAM2 binding inhibitor potency, dose response, biochemical, fluorescence polarization, FITC-PAM2 peptide (AID 602259); assay type: functional; conditions: read-out: IC50_Mean
[19] = target: Phosphoethanolamine/phosphocholine phosphatase (Homo sapiens, UniProt Q8TCT1); assay: SAR assay for compounds that inhibit PHOSPHO1. [Related pubchem assays (depositor defined):AID1545, AID1565, AID1574]
[20] = target: T5, Mannose-6-phosphate isomerase (Homo sapiens, UniProt P34949); assay: PMI enzyme inhibitors, confirmation, biochemical, fluorescence intensity (AID 1535)
T5 sequence (P34949 whole entry): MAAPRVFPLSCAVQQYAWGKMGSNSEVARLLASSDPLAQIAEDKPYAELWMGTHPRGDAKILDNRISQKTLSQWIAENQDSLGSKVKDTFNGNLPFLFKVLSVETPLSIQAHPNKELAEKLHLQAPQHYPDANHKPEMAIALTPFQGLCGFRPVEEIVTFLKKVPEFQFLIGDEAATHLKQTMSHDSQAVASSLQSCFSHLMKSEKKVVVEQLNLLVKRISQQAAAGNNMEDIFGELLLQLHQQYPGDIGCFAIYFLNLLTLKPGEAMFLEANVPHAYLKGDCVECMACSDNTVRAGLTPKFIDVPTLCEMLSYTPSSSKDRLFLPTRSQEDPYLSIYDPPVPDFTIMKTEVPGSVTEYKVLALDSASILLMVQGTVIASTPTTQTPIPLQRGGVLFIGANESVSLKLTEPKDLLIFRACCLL

Phosphomannomutase 2 = target: T6, Phosphomannomutase 2 (Homo sapiens, UniProt O15305); assay: Counter screen SAR assay for PMM2 inhibitors via a fluorescence intensity assay. [Related pubchem assays (depositor defined):AID1545, AID1574]
T6 sequence (O15305 whole entry): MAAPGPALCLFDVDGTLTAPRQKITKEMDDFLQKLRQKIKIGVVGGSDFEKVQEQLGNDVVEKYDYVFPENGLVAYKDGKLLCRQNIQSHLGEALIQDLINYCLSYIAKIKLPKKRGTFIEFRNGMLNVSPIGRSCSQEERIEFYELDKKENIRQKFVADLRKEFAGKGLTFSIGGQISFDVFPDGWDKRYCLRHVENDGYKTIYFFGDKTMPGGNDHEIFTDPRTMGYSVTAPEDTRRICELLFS

Large T antigen = Large T antigen (Simian virus 40, UniProt P03070); assay type: functional, Betapolyomavirus macacae;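 note: Confirmatory-stage PubChem screen for compounds that inhibit SV40 T antigen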
[21] = target: Eukaryotic translation initiation factor 4E (Mus musculus, UniProt P63073); assay: eIF4E–eIF4G protein interaction inhibitors, dose response, biochemical, TR-FRET (AID 855); assay type: functional;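 note: potency for disrupting eIF4E binding to eIF4GI seen as loss of FRET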
[22] = target: T7, Carboxy-terminal domain RNA polymerase II polypeptide A small phosphatase 1 (Homo sapiens, UniProt Q9GZU7); assay: inhibitors of CTDSP1, concentration-response testing, biochemical assay, absorbance-based, actives from ultra-high-throughput screening (AID 540297); assay type: functional
T7 sequence (Q9GZU7 whole entry): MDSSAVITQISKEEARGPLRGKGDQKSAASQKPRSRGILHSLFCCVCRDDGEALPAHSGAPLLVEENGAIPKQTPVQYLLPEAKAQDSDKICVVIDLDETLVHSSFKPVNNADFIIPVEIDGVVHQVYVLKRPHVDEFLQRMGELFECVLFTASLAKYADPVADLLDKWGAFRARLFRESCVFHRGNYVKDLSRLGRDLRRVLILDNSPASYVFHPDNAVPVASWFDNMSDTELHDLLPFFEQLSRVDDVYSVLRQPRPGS

[23] = target: Glucose-6-phosphate 1-dehydrogenase (Homo sapiens, UniProt P11413); assay: human G6PD enzyme inhibitors, dose response, selectivity assay for P. falciparum G6PD inhibitor project, biochemical, fluorescence (AID 504792); assay type: functional
Sequence of Glucose-6-phosphate 1-dehydrogenase (P11413 whole entry): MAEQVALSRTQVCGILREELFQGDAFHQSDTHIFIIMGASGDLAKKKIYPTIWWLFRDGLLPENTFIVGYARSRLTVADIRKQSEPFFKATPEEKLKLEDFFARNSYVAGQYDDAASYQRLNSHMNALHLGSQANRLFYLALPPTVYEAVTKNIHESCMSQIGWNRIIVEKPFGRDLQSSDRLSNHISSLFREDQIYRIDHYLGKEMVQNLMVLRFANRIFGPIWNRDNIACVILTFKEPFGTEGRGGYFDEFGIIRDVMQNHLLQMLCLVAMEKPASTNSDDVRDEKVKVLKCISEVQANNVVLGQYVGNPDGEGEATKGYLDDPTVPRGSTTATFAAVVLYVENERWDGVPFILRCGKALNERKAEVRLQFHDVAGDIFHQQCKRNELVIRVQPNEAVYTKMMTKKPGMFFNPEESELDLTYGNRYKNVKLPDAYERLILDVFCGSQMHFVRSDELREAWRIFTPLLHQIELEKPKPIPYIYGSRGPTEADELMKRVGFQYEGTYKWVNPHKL

Sequence of Protein Rev (P04618 whole entry, the tested form may be a part): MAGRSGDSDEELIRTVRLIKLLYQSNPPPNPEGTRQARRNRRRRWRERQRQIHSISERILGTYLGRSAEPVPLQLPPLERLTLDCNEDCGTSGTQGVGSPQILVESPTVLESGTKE
Sequence of Female germline-specific tumor suppressor gld-1 (Q17339 whole entry): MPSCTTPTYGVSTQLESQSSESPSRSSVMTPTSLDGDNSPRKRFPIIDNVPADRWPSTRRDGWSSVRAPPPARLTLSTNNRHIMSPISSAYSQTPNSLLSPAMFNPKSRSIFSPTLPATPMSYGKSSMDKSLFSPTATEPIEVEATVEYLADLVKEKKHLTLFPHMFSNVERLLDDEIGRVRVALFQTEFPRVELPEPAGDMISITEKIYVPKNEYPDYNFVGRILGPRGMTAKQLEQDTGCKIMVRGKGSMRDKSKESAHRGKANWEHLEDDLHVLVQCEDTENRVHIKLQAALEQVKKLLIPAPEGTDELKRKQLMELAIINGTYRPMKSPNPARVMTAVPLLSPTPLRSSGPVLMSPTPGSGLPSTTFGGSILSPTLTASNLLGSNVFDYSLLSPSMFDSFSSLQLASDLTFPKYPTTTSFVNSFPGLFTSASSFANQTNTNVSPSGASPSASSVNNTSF
T2 sequence (P11940 whole entry): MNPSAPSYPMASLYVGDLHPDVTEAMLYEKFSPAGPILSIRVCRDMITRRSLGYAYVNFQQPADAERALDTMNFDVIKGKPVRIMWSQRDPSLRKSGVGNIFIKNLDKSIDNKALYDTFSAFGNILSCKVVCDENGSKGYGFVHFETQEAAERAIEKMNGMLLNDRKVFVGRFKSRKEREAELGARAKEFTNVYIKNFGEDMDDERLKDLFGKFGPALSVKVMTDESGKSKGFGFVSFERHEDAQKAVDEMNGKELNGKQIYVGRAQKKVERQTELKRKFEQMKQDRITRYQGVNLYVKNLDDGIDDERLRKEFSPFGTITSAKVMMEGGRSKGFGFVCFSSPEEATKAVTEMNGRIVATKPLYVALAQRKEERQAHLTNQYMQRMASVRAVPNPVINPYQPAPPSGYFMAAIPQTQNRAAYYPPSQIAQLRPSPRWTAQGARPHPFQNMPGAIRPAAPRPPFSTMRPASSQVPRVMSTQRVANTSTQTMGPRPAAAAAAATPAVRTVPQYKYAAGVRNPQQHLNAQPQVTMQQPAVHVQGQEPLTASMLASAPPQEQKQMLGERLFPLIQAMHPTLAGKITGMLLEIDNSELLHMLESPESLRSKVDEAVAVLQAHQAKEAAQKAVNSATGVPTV
Sequence of DNA dC->dU-editing enzyme APOBEC-3G (Q9HC16 whole entry): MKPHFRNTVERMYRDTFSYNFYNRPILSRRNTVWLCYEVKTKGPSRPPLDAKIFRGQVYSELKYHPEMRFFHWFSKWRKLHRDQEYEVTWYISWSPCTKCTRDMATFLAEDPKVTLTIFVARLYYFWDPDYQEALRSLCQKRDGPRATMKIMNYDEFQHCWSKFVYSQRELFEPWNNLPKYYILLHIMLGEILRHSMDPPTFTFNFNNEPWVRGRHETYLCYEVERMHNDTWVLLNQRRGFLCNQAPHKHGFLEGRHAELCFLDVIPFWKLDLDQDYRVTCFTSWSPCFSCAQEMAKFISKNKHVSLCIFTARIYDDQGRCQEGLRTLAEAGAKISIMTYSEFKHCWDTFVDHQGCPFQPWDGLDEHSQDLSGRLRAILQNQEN
Sequence of DNA dC->dU-editing enzyme APOBEC-3A (P31941 whole entry): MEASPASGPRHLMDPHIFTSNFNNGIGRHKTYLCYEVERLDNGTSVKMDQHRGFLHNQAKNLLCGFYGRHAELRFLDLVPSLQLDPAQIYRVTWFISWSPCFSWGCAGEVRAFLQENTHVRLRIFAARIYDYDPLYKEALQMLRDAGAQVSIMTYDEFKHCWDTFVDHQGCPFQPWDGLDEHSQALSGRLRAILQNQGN
Sequence of Phosphoethanolamine/phosphocholine phosphatase (Q8TCT1 whole entry): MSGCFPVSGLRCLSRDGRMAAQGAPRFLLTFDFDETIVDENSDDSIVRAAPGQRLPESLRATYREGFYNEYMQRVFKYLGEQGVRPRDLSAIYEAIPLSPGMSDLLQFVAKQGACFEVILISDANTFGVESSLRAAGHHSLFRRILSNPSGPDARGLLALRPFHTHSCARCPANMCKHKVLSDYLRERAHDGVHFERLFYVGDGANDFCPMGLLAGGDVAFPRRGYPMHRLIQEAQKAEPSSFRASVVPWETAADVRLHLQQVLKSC
Sequence of Large T antigen (P03070 whole entry): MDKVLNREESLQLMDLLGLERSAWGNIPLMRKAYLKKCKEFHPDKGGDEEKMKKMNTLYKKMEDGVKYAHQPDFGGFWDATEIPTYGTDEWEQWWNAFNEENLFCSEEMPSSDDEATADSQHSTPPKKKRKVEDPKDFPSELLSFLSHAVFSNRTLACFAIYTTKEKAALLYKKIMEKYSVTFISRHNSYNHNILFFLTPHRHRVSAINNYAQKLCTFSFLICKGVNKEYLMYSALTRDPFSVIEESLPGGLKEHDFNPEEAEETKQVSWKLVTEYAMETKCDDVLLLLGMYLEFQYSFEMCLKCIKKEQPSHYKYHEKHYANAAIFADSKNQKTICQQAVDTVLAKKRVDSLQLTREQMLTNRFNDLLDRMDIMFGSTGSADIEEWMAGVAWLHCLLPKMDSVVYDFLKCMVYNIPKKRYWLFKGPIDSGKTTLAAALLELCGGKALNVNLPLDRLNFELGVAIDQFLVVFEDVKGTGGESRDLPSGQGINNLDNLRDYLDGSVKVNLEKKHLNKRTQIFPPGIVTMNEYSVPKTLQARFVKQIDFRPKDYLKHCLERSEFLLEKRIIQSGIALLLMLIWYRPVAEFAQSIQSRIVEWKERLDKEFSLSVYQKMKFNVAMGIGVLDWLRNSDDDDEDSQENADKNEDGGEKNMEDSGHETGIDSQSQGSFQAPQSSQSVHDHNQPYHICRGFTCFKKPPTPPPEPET
Sequence of Eukaryotic translation initiation factor 4E (P63073 whole entry, the tested form may be a part): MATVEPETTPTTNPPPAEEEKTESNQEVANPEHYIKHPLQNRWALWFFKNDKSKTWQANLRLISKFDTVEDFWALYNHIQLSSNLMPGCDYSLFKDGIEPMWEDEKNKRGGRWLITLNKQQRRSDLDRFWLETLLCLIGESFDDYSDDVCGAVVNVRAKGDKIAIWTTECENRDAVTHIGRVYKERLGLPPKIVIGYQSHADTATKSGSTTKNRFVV
Sequence of Nonstructural protein 1 (Q194T2 whole entry): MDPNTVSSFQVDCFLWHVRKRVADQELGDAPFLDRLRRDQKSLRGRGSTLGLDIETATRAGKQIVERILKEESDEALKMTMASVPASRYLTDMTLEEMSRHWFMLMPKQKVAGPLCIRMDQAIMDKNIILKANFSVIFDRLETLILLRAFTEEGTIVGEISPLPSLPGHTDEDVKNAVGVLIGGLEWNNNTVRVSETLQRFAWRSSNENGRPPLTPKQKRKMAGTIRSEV

## COc1ccc2sc(NC(=O)c3ccco3)nc2c1
[1]
  IC50: 17.3 µM (active)
[2]
  IC50: 10.3 µM (active)
[3]
  AC50: 7.49 µM (active)
[4]
  AC50: 8.55 µM (active)
[5]
  AC50: > 52 µM (inactive)
[6]
  IC50: > 67.5 µM (inactive)
Cells [7]
  IC50: > 67.5 µM (inactive)

## O=C(CCS(=O)(=O)c1ccc(F)cc1)Nc1nc(-c2ccccn2)cs1
[8]
  CC50: 21.1 µM (active)
[9]
  CC50: 23.6 µM (active)
Cells [10]
  IC50: 6.21 µM (active)
[11]
  AC50: 99.2 µM (active)
[12]
  CC50: > 20 µM (active)
Nonstructural protein 1
  IC50: 21.5 µM (active)
[13]
  CC50: 12 µM (active)

## COc1ccc(NC(=O)Nc2cc(C)cc(C)c2)cn1
[14]
  IC50: 7.15 µM (active)
[15]
  IC50: > 66 µM (inactive)
Protein Rev
  IC50: 11.4 µM (not active)
[16]
  EC50: 186 µM (active)
[17]
  EC50: 27.4 µM (active)
[18]
  IC50: 21.8 µM (inactive)

## CC(C)CCN(C(=O)CCCSc1nc2ccccc2[nH]1)c1c(N)n(Cc2ccccc2)c(=O)[nH]c1=O
[14]
  IC50: 3.12 µM (active)
Protein Rev
  IC50: > 8.38 µM (active)

## O=c1c2ccccc2sn1-c1cc(S(=O)(=O)N2CCOCC2)ccc1N1CCCC1
[19]
  IC50: 10.7 µM (inactive)
[20]
  IC50: 7.51 µM (active)
Phosphomannomutase 2
  IC50: 29.8 µM (active)
Large T antigen
  IC50: 11.7 µM (active)
[21]
  IC50: 34.5 µM (inactive)
[22]
  IC50: 11 µM (active)
[23]
  IC50: 14.3 µM (active)
